Source: patent US10870647B2, “Imidazopyridine derivative, method for preparing same, and pharmaceutical composition containing same as active ingredient for preventing or treating cancer” (DAEGU-GYEONGBUK MEDICAL INNOVATION FOUNDATION, priority 2016, dated 2020)
Like-named read-outs stand apart in the source and are kept apart here.

Legend:
Test in all cases: Kinase selectivity, scanMAX Kinase assay panel (DiscoverX), % control at 1 uM
Type in all cases: binding
[1] = target: T1, scanMAX Kinase assay panel (Homo sapiens, UniProt P49674); settings: CSNK1E; 1 uM; read-out: Percent Control (%)
T1 construct: purchased DiscoverX
In short: (§1)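 Compounds were tested at 1 uM in DMSO against each enzyme in the panel. Percent control was calculated as (compound − positive control)/(negative control − positive control) × 100, and a compound was scored active on a kinase when this value fell below 35.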

[2] = target: T2, scanMAX Kinase assay panel (Homo sapiens, UniProt Q92630); settings: DYRK2; 1 uM; read-out: Percent Control (%)
T2 construct: purchased DiscoverX
T2 sequence (Q92630 1-601): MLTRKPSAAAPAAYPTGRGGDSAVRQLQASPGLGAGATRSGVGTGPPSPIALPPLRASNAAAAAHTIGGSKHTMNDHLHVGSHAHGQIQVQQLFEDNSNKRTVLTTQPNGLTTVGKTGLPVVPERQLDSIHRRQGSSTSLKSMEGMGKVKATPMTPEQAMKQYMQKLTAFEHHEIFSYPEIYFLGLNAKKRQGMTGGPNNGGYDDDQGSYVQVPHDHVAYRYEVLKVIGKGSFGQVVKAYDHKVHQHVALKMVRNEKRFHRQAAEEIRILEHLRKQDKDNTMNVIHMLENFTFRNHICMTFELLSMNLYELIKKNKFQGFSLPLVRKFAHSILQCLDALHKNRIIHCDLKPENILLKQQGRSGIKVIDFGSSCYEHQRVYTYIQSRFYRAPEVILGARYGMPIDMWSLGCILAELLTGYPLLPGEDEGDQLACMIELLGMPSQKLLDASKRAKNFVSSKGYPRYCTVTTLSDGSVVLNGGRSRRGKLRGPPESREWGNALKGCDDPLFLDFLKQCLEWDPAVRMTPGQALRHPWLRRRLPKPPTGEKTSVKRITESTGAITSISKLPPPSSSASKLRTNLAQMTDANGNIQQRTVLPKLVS
In short: as §1

[3] = target: T3, scanMAX Kinase assay panel (Homo sapiens, UniProt Q9Y3S1); settings: WNK2; 1 uM; read-out: Percent Control (%)
T3 construct: purchased DiscoverX
T3 sequence (Q9Y3S1 whole entry): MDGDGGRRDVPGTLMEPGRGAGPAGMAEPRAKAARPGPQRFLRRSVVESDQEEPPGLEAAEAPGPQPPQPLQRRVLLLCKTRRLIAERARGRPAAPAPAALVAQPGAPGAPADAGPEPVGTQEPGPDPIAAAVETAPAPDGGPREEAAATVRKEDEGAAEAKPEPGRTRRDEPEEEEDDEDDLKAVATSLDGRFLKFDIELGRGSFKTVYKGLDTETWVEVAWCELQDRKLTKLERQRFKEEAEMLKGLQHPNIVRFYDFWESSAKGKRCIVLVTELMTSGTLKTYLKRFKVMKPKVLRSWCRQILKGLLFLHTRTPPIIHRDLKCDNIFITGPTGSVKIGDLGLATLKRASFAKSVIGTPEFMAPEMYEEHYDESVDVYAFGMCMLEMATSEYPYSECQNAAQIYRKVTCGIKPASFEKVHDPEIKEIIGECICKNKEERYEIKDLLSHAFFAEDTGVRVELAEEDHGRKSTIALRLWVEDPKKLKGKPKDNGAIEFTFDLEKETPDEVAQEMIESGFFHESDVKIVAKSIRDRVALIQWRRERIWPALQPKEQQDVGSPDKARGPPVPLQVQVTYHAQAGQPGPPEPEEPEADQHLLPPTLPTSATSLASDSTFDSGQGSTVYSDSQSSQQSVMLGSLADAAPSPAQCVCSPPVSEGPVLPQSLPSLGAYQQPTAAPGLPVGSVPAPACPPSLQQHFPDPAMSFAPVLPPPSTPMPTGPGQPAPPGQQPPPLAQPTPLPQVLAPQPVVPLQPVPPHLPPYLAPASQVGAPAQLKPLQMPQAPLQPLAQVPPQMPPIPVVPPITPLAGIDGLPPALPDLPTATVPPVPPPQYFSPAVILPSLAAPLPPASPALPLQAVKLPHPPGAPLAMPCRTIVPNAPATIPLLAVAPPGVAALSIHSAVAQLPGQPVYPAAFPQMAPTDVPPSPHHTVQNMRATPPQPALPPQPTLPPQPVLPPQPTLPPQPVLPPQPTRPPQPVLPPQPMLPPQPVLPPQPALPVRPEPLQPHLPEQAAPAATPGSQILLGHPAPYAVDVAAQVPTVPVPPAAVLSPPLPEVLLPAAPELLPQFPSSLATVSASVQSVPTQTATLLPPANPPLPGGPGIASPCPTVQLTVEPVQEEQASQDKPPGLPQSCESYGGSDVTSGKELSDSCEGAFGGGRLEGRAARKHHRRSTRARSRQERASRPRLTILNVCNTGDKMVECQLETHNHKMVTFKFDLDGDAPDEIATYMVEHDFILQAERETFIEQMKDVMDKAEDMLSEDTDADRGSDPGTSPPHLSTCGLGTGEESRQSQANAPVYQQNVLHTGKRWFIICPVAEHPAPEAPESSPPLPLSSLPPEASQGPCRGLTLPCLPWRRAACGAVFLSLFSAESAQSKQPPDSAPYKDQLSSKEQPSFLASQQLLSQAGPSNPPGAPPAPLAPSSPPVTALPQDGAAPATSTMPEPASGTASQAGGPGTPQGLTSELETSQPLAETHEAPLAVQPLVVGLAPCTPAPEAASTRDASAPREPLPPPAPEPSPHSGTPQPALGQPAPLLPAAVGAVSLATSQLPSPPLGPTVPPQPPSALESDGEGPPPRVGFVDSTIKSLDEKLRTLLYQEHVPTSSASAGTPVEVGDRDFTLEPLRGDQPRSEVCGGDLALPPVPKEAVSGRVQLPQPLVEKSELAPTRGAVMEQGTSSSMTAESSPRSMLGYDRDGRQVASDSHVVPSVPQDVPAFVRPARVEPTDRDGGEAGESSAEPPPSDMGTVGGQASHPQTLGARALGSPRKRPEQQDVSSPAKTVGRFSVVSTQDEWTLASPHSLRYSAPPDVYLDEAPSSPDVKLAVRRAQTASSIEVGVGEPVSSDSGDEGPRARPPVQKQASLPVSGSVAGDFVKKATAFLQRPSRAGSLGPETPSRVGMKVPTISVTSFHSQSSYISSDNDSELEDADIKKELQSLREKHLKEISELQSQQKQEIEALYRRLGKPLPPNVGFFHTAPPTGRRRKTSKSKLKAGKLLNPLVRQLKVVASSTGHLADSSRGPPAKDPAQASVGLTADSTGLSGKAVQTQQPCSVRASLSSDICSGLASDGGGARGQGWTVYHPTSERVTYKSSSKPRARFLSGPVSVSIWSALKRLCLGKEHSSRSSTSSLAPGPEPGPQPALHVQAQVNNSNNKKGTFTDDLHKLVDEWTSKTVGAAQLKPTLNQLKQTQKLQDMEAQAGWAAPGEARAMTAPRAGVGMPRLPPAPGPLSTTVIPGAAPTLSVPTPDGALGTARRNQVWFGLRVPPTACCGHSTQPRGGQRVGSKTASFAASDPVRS
In short: as §1

[4] = target: T4, scanMAX Kinase assay panel (Homo sapiens, UniProt P42336, E545K); settings: PIK3CA (E545K); 1 uM; read-out: Percent Control (%)
T4 construct: purchased DiscoverX
T4 sequence (P42336 whole entry E545K): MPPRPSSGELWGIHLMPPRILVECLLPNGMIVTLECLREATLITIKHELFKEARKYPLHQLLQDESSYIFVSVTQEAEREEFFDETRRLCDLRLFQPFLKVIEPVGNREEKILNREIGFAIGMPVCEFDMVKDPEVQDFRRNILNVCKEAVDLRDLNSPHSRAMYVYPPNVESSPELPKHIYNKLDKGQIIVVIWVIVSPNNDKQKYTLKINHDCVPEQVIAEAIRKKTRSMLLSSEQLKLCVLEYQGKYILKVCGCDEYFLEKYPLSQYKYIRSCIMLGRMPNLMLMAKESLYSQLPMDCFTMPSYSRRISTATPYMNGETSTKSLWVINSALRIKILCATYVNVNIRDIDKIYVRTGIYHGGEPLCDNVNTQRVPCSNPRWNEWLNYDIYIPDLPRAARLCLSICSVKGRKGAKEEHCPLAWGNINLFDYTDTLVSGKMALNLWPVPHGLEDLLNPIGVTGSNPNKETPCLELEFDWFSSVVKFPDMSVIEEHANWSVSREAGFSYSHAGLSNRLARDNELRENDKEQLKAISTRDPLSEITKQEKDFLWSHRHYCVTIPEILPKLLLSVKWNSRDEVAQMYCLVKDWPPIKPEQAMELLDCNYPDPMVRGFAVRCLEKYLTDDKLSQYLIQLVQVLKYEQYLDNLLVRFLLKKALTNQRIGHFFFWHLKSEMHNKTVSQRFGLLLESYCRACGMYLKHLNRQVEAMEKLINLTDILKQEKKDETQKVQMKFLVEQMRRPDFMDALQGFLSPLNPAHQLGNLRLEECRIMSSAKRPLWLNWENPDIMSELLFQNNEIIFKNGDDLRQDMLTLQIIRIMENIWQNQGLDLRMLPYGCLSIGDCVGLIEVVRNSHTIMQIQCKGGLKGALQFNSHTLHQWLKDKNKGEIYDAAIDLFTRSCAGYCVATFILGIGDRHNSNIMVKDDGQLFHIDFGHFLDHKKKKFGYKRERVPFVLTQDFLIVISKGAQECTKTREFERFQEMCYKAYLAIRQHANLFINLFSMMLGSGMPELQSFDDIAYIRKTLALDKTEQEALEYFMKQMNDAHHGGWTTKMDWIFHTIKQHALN
In short: as §1

[5] = target: T5, scanMAX Kinase assay panel (Homo sapiens, UniProt Q52WX2); settings: SBK1; 1 uM; read-out: Percent Control (%)
T5 construct: purchased DiscoverX
T5 sequence (Q52WX2 whole entry): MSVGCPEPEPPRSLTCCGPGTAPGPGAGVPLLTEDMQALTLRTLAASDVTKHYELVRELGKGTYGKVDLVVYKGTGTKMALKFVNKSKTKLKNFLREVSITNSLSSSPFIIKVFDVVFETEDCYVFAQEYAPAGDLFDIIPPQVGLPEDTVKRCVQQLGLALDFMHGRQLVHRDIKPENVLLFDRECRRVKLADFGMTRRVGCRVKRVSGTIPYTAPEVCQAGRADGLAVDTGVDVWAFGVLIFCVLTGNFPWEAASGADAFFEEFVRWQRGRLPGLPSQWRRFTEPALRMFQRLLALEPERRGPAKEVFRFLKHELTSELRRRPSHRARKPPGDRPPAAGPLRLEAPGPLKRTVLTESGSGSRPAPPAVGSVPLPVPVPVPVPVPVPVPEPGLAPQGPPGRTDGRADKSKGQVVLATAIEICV
In short: as §1

[6] = target: T6, scanMAX Kinase assay panel (Homo sapiens, UniProt P07333); settings: 1 uM, read-out: Percent Control (%)
T6 construct: purchased DiscoverX
T6 sequence (P07333 20-972): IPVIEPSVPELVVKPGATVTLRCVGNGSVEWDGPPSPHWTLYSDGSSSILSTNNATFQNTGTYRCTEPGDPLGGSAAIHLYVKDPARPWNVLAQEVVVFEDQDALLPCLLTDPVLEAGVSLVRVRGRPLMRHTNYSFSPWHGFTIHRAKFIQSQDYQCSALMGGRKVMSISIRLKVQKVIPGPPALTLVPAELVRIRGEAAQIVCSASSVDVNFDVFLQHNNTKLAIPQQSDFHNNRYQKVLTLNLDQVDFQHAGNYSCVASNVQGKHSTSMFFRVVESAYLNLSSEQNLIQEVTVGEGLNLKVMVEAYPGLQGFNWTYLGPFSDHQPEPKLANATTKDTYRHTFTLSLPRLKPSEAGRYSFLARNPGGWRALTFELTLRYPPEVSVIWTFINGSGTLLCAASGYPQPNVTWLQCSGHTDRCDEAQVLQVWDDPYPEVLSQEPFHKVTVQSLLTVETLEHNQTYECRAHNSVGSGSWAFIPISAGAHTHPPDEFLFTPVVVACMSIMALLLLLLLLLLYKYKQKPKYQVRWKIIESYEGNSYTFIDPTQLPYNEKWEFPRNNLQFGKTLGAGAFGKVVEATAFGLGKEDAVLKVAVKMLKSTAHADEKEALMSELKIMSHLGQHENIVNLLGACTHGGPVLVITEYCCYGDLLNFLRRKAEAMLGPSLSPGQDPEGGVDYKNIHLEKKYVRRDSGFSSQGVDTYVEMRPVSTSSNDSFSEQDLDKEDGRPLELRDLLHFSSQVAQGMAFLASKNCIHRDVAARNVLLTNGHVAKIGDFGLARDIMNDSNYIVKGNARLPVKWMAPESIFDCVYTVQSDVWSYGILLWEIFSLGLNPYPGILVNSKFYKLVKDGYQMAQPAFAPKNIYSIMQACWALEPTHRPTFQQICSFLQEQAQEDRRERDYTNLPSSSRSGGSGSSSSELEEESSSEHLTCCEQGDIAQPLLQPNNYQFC
In short: as §1

[7] = target: T7, scanMAX Kinase assay panel (Homo sapiens, UniProt P22694); settings: PKAC-beta; 1 uM; read-out: Percent Control (%)
T7 construct: purchased DiscoverX
In short: as §1

[8] = target: T8, scanMAX Kinase assay panel (Homo sapiens, UniProt Q9HAZ1); settings: CLK4; 1 uM; read-out: Percent Control (%)
T8 construct: purchased DiscoverX
In short: as §1

[9] = target: T9, scanMAX Kinase assay panel (Homo sapiens, UniProt P00519, Q252H); settings: 1 uM, read-out: Percent Control (%)
T9 construct: purchased DiscoverX
In short: as §1

[10] = target: T10, scanMAX Kinase assay panel (Homo sapiens, UniProt P42336, H1047Y); settings: PIK3CA (H1047Y); 1 uM; read-out: Percent Control (%)
T10 construct: purchased DiscoverX
T10 sequence (P42336 whole entry H1047Y): as the sequence (P42336 whole entry E545K) above, with K545E, H1047Y counted along it
In short: as §1

[11] = target: T11, scanMAX Kinase assay panel (Homo sapiens, UniProt P36888, N841I); settings: FLT3 (N841I); 1 uM; read-out: Percent Control (%)
T11 construct: purchased DiscoverX
T11 sequence (P36888 27-993 N841I): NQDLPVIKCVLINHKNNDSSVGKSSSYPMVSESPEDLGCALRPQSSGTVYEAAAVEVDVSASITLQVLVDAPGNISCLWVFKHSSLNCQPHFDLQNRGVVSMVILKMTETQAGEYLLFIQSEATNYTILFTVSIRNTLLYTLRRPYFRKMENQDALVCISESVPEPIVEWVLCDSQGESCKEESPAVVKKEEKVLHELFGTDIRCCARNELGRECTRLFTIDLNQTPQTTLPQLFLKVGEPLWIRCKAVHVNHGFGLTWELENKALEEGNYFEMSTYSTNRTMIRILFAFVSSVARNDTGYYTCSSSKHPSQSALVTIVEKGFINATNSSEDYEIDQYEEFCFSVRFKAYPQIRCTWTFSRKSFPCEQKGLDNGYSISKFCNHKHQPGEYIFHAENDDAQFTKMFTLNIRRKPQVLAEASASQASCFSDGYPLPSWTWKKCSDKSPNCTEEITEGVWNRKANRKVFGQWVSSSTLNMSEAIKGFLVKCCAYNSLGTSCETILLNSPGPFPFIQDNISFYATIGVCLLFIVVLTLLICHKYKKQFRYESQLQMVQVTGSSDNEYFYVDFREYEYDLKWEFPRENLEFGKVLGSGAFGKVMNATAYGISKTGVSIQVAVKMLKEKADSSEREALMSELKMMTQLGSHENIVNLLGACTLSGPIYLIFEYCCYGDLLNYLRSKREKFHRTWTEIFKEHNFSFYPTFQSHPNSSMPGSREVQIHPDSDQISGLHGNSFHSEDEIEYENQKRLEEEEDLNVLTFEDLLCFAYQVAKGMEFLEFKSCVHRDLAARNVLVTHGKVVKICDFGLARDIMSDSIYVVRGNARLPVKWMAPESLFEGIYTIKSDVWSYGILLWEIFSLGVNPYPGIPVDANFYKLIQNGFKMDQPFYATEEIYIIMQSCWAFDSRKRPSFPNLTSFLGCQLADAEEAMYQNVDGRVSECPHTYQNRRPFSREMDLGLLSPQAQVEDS
In short: as §1

| SMILES | remaining binding at 1 µM [1] [%] | remaining binding at 1 µM [2] [%] | remaining binding at 1 µM [3] [%] | remaining binding at 1 µM [4] [%] | remaining binding at 1 µM [5] [%] | remaining binding at 1 µM ([6]; CSF1R-autoinhibited) [%] | remaining binding at 1 µM ([6]; CSF1R) [%] | remaining binding at 1 µM [7] [%] | remaining binding at 1 µM [8] [%] | remaining binding at 1 µM ([9]; ABL1 (Q252H)-nonphosphorylated) [%] | remaining binding at 1 µM ([9]; ABL1 (Q252H)-phosphorylated) [%] | remaining binding at 1 µM [10] [%] | remaining binding at 1 µM [11] [%] |
| --- | --- | --- | --- | --- | --- | --- | --- | --- | --- | --- | --- | --- | --- |
| Cc1ccc(C(=O)Nc2ccc(CN3CCN(C)CC3)c(C(F)(F)F)c2)cc1C#Cc1cnc2c(Nc3cnn(C)c3)cccn12 [Example 1, 4-methyl-3-((8-((1-methyl-1H-pyrazol-4-yl)amino)imidazo[1,2-a]pyridin-3-yl)ethynyl)-N-(4-((4-methylpiperazin-1-yl)methyl)-3-(trifluoromethyl)phenyl)benzamide] | 90 | 75 | 82 | 81 | 89 | 74 | 0 | 34 | 10 | 7 | 0 | 74 | 0 |
| Cc1cn(-c2cc(NC(=O)c3ccc(C)c(C#Cc4cnc5c(Nc6cnn(C)c6)cccn45)c3)cc(C(F)(F)F)c2)cn1 [Example 12, 4-methyl-N-(3-(4-methyl-1H-imidazol-1-yl)-5-(trifluoromethyl)phenyl)-3-((8-((1-methyl-1H-pyrazol-4-yl)amino)imidazo[1,2-a]pyridin-3-yl)ethynyl)benzamide] | 99 | 91 | 100 | 77 | 94 | 100 | 0 | 87 | 100 | 3 | 14 | 84 | 28 |
| Cc1ccc(NC(=O)C2(C(=O)Nc3ccc(F)cc3)CC2)cc1C#Cc1cnc2c(Nc3cnn(C(C)C)c3)cccn12 [Example 78] | 94 | 94 | 100 | 92 | 100 | 91 | 2 | 98 | 100 | 6 | 91 | 100 | 59 |
